The values that follow come from US11952349B2, “Anti-cancer nuclear hormone receptor-targeting compounds” (Nuvation Bio Inc., priority 2019, dated 2024).

The structures appear in SMILES notation.

Assay [1] addresses Human recombinant PARP1 (Homo sapiens, UniProt P09874). Briefly: RBC HotSpot PARP1 assay (radioisotope-based filter binding). It is filed as biochemical. The note with it: Table 9; read-out: PARP1. The protocol:
The following methods are for evaluating the in vitro biology properties of the test articles. • a. RBC HotSpot Poly(ADP-ribose) Polymerases 1 (PARP1) and Poly(ADP-ribose) Polymerases 2 (PARP2) Assays: The assay was conducted at Reaction Biology Corporation (RBC; Malvern, PA). The assay principle is radioisotope-based filter binding assay where incorporation of radioisotope-labeled NAD^+ into the substrate captured on filter is detected after washout free NAD^+. Data were analyzed using Excel and GraphPad Prism software for IC50 curve fits. Each assay was conducted with PJ34 as a positive control. PARP1 assay: Human recombinant PARP1 at a final concentration of 2.5 nM was combined with histone H4 (20 μM) and test articles at various concentrations in reaction buffer (50 mM Tris-HCL, pH 8.0, 50 mM NaCl, 10 mM MgCl2, 1 mM DTT, 1% DMSO, and 20 μg/mL activated DNA). The solution was inoculated for 20 min at room temperature and the reaction initiated by adding [adenylate-^32P]-Nicotinamide Adenine Dinucleotide, ^32P-NAD^+ at a final concentration of 10 μM. After incubation for 2 hrs at room temperature, the reaction mixture was filtered and washed with 0.75% phosphoric acid for radioactivity detection. • ii. PARP2 assay: Human recombinant PARP2 at a final concentration of 2.5 nM was combined with histone H3 (20 μM) and test articles at various concentrations in reaction buffer (50 mM Tris-HCL, pH 8.0, 50 mM NaCl, 10 mM MgCl2, 1 mM DTT, 1% DMSO, and 20 μg/mL activated DNA). The solution was inoculated for 20 min at room temperature and the reaction was initiated by adding [adenylate-^32P]-Nicotinamide Adenine Dinucleotide, ^32P-NAD^+ at a final concentration of 10 μM. After incubation for 2 hrs at room temperature, the reaction mixture was filtered and washed with 0.75% phosphoric acid for radioactivity detection. • b. AR binding assay: AR in LNCaP cytosol was used for determining the binding affinity of test articles and the reference compound—progesterone (Sigma, Cat: E2785, St. Louis, MO). IC50 s were determined using 8 concentrations/compound. Cytosol is plated at 200 μg/well (100 μL) into a 96-well conical polypropylene plate (Agilent, Cat: 5042-1385, Santa Clara, CA) and mixed with 3 μL of test compound. After adding 100 μL of ^3H-methyltrienolone (PerkinElmer, Cat: NET590250UC, San Jose, CA), the plate was sealed and shaken at 300 rpm at 4° C. for 24 hours. Post incubation, 100 μL of radioligand adsorption buffer containing 10 mM Tris-HCl, pH 7.4; 1.5 mM EDTA; 1 mM DTT; 0.25% charcoal; 0.0025% dextran was added to individual wells. Plate was shaken for 15 min at 4° C. followed by centrifugation at 3000 rpm for 30 min at 4° C. 150 μL of supernatant is transferred into scint-tube (PerkinElmer, Cat: 6000192) and mixed with 2 mL of Ultima Gold Cocktail (PerkinElmer, Cat: 6013329). Radioactivity is counted using a TriCarb 2910 TR scintillation counter (PerkinElmer). Inhibition of the radioactivity by test articles was calculated using the equation below: % Inhibition=(1−(Assay well−Average_LC)/(Average_HC−Average_LC))×100%. • IC50 values (Table 6) were calculated and graphed using the model “log(inhibitor) vs. response—Variable slope” included in GraphPad Prism 5 (San Diego, CA). The Ki values were further calculated using the equation below where [L] is the radioligand concentration (1 nM) used in this study. Kd value was 0.332 nM. Ki=IC50/(1+[L]/Kd) • c. AR transactivation: Human AR cloned into a CMV vector backbone is used for the transactivation study. HEK-293 cells are plated at 80,000 cells per well of a 24 well plate in DME+5% csFBS. Twenty four hours later, the cells are transfected using Lipofectamine (Invitrogen, Carlsbad, CA) with 0.25 μg GRE-LUC, 0.01 μg CMV-LUC (renilla luciferase) and 25 ng of the AR in OPTIMEM medium. The cells are treated 24 hrs after transfection with various ligands (10^−12 to 10^−5 M final concentrations) and luciferase assay performed 48 hours after transfection. […]

Assay [2] deals with T1, Progesterone PR-B receptors from human breast carcinoma T47D cells (Homo sapiens, UniProt P06401).
T1 construct: endogenous in cells; host or cells: T47D human breast carcinoma cells (cell supernatant)
T1 sequence (P06401 1-933): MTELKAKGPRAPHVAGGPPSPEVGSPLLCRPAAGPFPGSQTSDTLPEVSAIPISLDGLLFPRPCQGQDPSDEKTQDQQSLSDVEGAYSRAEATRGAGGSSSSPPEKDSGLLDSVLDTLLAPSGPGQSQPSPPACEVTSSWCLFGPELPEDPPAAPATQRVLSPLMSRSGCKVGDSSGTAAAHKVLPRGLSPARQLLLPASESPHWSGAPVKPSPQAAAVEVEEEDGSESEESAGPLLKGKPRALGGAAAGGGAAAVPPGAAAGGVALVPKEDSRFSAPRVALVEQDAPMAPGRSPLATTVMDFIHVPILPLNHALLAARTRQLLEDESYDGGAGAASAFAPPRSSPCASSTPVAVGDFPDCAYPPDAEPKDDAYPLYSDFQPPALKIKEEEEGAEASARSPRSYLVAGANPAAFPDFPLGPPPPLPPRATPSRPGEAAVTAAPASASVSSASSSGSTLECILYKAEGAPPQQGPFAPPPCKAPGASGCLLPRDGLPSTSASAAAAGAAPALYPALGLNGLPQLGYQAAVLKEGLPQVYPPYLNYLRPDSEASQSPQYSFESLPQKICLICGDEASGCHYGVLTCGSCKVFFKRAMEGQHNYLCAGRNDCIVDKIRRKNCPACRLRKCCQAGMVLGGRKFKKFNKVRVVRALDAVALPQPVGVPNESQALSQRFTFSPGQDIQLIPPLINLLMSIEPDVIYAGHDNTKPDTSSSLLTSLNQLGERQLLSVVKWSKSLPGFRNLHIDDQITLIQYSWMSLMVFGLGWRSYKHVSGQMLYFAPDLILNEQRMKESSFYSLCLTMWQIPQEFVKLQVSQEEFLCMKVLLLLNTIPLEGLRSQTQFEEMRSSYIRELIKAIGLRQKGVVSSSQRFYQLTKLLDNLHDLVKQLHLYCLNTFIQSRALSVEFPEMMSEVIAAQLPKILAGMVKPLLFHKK
Put plainly: PR binding assay, [3H]Progesterone. The conditions noted are these: Table 8; 0.5 nM [3H]Progesterone. The protocol:
PR binding assay: Progesterone PR-B receptors from human breast carcinoma T47D cells are used in modified Na2HPO4/NaH2PO4 buffer pH 7.4. Compounds were screened at a range of doses (Top dose 40 nM, 4 fold serial dilution, 8 point dose response) and were dispensed into the assay plate. Supernatant of 1.2×10^5 cells aliquot was added to the assay plate and was incubated with 0.5 nM [^3H]Progesterone for 20 hours at 4° C. Membranes are filtered and washed, the filters are then counted to determine [^3H]Progesterone specifically bound. Binding IC50 was determined as the concentration where 50% inhibition of radioligand binding was observed.

Human recombinant PARP1, sequence (P09874 whole entry): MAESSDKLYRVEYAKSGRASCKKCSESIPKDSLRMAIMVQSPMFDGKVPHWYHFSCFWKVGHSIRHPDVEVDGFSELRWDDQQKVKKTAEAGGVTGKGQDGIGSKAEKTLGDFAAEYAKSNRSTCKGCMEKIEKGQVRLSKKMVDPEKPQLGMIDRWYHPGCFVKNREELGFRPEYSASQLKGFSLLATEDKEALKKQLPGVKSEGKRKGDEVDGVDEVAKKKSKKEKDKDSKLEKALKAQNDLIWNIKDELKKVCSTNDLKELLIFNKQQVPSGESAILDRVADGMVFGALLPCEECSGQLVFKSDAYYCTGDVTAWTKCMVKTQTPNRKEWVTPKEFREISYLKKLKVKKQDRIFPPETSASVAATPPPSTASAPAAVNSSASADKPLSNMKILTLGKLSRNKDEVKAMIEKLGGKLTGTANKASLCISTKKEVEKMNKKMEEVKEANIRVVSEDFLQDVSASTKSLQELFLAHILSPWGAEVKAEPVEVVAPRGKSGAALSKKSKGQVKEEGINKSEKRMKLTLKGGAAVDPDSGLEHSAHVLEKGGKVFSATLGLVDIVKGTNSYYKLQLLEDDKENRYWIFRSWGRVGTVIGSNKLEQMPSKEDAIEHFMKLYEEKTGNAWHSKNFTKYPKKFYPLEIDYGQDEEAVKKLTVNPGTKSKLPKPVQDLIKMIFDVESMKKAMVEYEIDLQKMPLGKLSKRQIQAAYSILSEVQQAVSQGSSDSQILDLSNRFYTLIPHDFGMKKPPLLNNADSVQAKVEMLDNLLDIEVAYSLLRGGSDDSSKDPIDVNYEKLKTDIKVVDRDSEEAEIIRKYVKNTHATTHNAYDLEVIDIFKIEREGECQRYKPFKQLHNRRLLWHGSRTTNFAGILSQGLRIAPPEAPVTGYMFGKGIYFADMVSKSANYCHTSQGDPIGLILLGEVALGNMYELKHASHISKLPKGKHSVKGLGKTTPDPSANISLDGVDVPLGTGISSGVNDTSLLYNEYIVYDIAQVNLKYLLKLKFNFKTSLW

Take `C[C@]12CC[C@H]3[C@@H](CCC4=CC(=O)CC[C@@]43C)[C@@H]1CC[C@@H]2C(=O)COCCCCCC(=O)N1CCN(C(=O)c2cc(Cc3n[nH]c(=O)c4ccccc34)ccc2F)CC1` [Compound 1386, 4-(3-(4-(6-(2-((8S,9S,10R,13S,14S,17S)-10,13-dimethyl-3-oxo-2,3,6,7,8,9,10,11,12,13,14,15,16,17-tetradecahydro-1H-cyclopenta[a]phenanthren-17-yl)-2-oxoethoxy)hexanoyl)piperazine-1-carbonyl)-4-fluorobenzyl)phthalazin-1(2H)-one]: the IC50 in assay [1] lay within 1 to 10 nM; in assay [2], 10 to 100 nM.
